{"source": "patent US9045474B2", "about": "“Compounds and compositions for mitigating tissue damage and lethality” (The Regents of the University of California, priority 2010, dated 2015)", "key": {"RS112 cells": {"tested_on": "RS112 cells", "assay": "DEL plating assay for mitigation of radiation damage (treatment after 2000Gy)", "assay_type": "cell-based, Saccharomyces cerevisiae", "experimental": "The mitigation protocol is based on the same DEL assay principle of recombination of the disrupted HIS3 gene that renders the cells capable of synthesizing its own histidine following radiation exposure. To establish mitigation properties of the compounds in question, the classical DEL protocol is modified as follows: first the RS112 cells are irradiated with 2000Gy and then the treatments are administered at 0 min, 10 min, 20 min, 30 min, and 60 min, incubated for 2 hrs, and plated on +13 and −His agar plates. The efficacy of the compounds is scored the same way as in the classical DEL protocol. Yel1 and Yel2 analogues that are efficacious in the HTS and classical DEL assay are analyzed for mitigation activity using this modified DEL protocol.\nSix confirmed hits were also tested for radioprotection with the compounds being presented to irradiated cells at different time points following irradiation exposure. The DEL Plating Assay was used with a radiation sensitive Saccharomyces cerevisiae RS112 strain.\nThe general DEL Assay is described above. In this example, DEL assay is a genetic construct in the Saccharomyces cerevisiae RS112 strain where a plasmid with an internal fragment of the HIS3 gene has been integrated at the HIS3 locus, yielding an integrative disruption of the HIS3 gene. […] The construct reverts to HIS3+ by recombination between the two his3 deletion alleles which is, in 99% of the cases, associated with the deletion of the entire 6 kilobasepairs of DNA comprising the integrated plasmid. DEL events are inducible with a variety of DNA-assaulting agents: radiation, smoking, UV exposure, 92% of the known carcinogens, etc.\nRS112 cells irradiated with 2000Gy show an induction of the deletion frequencies (DEL events) and roughly a 90% killing."}, "DBA/2 Mice": {"tested_on": "DBA/2 Mice", "assay": "Radiation-induced leukemia model", "assay_type": "in vivo, mouse", "experimental": "DBA/2 Mice (15/group) were irradiated with ^60Co (3.5 Gy, 0.6 Gy/min) to induce leukemia. One group received no drug, another group of mice were injected s.c. with Yel001 or Yel002 (25 mg/kg) with 5 injections for 5 days. Leukemogenesis was monitored for 90 days. Blood was drawn at days −1, 21, 42, and 63 to monitor for leukemia every 21 days to monitor for leukemia development using WBCs and differentials. This leukemia model takes advantage of non-targeted radiation effects, which are important to the carcinogenic process. This model has a shorter latency period to gamma radiation-induced leukemia (latency to 50% leukemic population: 107 days) than other murine leukemia models such as CBA mouse (399 days: 50% leukemic population). DBA/2 mice were irradiated with 3.5 Gy (^60Co 0.60 Gy/min) and then injected intravenously with (5×10^6) FDC-P1 cells. Animals were then monitored 5×/weekly for 10 weeks-post-injection and then daily after 10 weeks-post-injection until leukemia development and/or euthanasia. After the animal has been determined to be leukemic using hematological parameters, it is euthanized and a necropsy is conducted to definitively determine a conclusive diagnosis of leukemia. Control animals not developing leukemia are assessed at 270 days post experiment initiation. At that time they are euthanized and necropsied."}, "[1]": {"tested_on": "primary human keratinocytes", "assay": "Senescence of primary keratinocytes in co-culture", "assay_type": "cell-based"}}, "note": "“Also recorded” adds a separate entry of the source."}
{"smiles": "COc1ccc2cc(-c3nc4ccc(C)cn4c3NCc3ccco3)c(=O)[nH]c2c1", "note": "[Yel002]", "values": [{"measurement": "reduction of DEL events (gene reversion frequency)", "setting": "RS112 cells; compound added 0-60 min after 2000Gy, p<0.05", "value": "decreased DEL frequencies; also recorded: significant reduction of genetic instability"}, {"measurement": "mitigation of radiation cytotoxicity (survival)", "setting": "RS112 cells; compound added at time points after 2000Gy, significant only at 60 min", "value": "increased survival fractions; also recorded: mitigation of radiation cytotoxicity has been observed"}, {"measurement": "first development of leukemia", "setting": "DBA/2 Mice; 3.5 Gy, 25 mg/kg s.c., no drug also within 42 days", "value": 42, "unit": "days"}, {"measurement": "mice exhibiting leukemia", "setting": "DBA/2 Mice; Day 94, 3.5 Gy, 25 mg/kg s.c. 5 injections, irradiated controls 30%", "value": 10, "unit": "%"}, {"measurement": "leukemia frequency", "setting": "DBA/2 Mice; Day 270, irradiated population 90%", "value": 40, "unit": "%"}, {"measurement": "latency to leukemia development", "setting": "DBA/2 Mice; FIG. 17", "value": "increased latency to leukemia development"}, {"measurement": "frequency of radiation induced and/or spontaneous cancer", "setting": "DBA/2 Mice; FIG. 18", "value": "effective for reducing the frequency of radiation induced and spontaneous cancer"}, {"measurement": "doubling time of the cells", "setting": "[1]", "value": "extended the doubling time"}, {"measurement": "progression into senescence", "setting": "[1]; 5 uM", "value": "decreased progression of cells into senescence; also recorded: decreases the progression into senescence"}]}
